# Target: T1, RORc ligand binding domain (Homo sapiens, UniProt P51449)
# T1 construct: host or cells: E. coli
# T1 sequence (P51449 269-508 limits assumed): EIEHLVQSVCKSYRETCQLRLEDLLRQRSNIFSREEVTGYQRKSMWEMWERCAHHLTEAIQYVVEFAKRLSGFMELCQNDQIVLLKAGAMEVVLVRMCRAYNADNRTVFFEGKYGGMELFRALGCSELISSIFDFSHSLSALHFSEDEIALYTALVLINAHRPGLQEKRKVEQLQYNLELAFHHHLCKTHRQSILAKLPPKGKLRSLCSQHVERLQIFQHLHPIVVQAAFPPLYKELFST
# Test: In vitro RORc ligand binding assay (25-[3H]hydroxycholesterol displacement, filter binding)
# Conditions: 6 nM 25-[3H]hydroxycholesterol, 0.6 ug/mL RORc receptor, 3 h at 25° C.
# How it was run: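 Filter-binding displacement of 6 nM 25-[3H]hydroxycholesterol from RORc receptor (0.6 ug/mL) in 50 mM HEPES pH 7.4, 150 mM NaCl, 5 mM MgCl2, 1 mM DTT, 0.01% BSA, 5% DMSO; 3 h at 25° C. NSB defined with 1 uM 25-hydroxycholesterol; scintillation counting gave Kiapp, IC50 or % inhibition (screening at 1 and 10 uM).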
row,Compound,IC50 [nM]
1,"CC[C@]12CC[C@H](c3cc(-c4ccccc4F)nnc31)C2(C)C [Example 35, (5S,8R)-8-ethyl-3-(2-fluorophenyl)-9,9-dimethyl-5,6,7,8-tetrahydro-5,8-methanocinnoline]",37
2,CC(=O)OC[C@]12CC[C@H](c3cc(-c4ccccc4F)nnc31)C2(C)C [Example 12],45
3,"CC(=O)N(C)C1CCN(C(=O)[C@]23CC[C@H](c4cc(-c5c(F)cccc5F)nnc42)C3(C)C)C1 (stereo partly drawn) [Example 203, N-(1-((5S,8S)-3-(2,6-difluorophenyl)-9,9-dimethyl-5,6,7,8-tetrahydro-5,8-methanocinnoline-8-carbonyl)pyrrolidin-3-yl)-N-methylacetamide]",1220
4,"CN1CCN(C[C@]23CC[C@H](c4cc(-c5ccccc5F)nnc42)C3(C)C)C1=O [Example 46, 1-{[(5S,8R)-3-(2-fluorophenyl)-9,9-dimethyl-6,7-dihydro-5,8-methanocinnolin-8(5H)-yl]methyl}-3-methylimidazolidin-2-one]",1450
5,"CCN(C[C@]12CC[C@H](c3cc(-c4c(F)cccc4F)nnc31)C2(C)C)C(=O)CCC(=O)N(C)C [Example 344, N1-(((5S,8R)-3-(2,6-difluorophenyl)-9,9-dimethyl-5,6,7,8-tetrahydro-5,8-methanocinnolin-8-yl)methyl)-N1-ethyl-N4,N4-dimethylsuccinamide]",31
6,"COCCOC[C@]12CC[C@H](c3cc(-c4ccccc4F)nnc31)C2(C)C [Example 26, (5S,8S)-3-(2-fluorophenyl)-8-[(2-methoxyethoxy)methyl]-9,9-dimethyl-5,6,7,8-tetrahydro-5,8-methanocinnoline]",789
7,"COCC[C@]12CC[C@H](c3cc(-c4ccccc4F)nnc31)C2(C)C [Example 41, (5S,8S)-3-(2-fluorophenyl)-8-(2-methoxyethyl)-9,9-dimethyl-5,6,7,8-tetrahydro-5,8-methanocinnoline]",54
8,"CC1(C)[C@@H]2CC[C@@]1(I)c1nnc(-c3ccccc3F)cc12 [Example 200, (5R,8S)-3-(2-fluorophenyl)-8-iodo-9,9-dimethyl-5,6,7,8-tetrahydro-5,8-methanocinnoline]",338
9,"CN(C)[C@@H]1CCN(C(=O)[C@]23CC[C@H](c4cc(-c5c(F)cccc5F)nnc42)C3(C)C)C1 [Example 242, ((5S,8S)-3-(2,6-difluorophenyl)-9,9-dimethyl-5,6,7,8-tetrahydro-5,8-methanocinnolin-8-yl) ((R)-3-(dimethylamino)pyrrolidin-1-yl)methanone]",707
10,"CCN(C[C@@]12CC[C@@H](c3cc(-c4c(F)cccc4F)nnc31)C2(C)C)C(=O)CC#N [Example 160, 2-cyano-N-(((5R,8S)-3-(2,6-difluorophenyl)-9,9-dimethyl-5,6,7,8-tetrahydro-5,8-methanocinnolin-8-yl)methyl)-N-ethylacetamide]",27
11,"CCNC(=O)N(CC)C[C@@]12CC[C@@H](c3cc(-c4c(F)cccc4F)nnc31)C2(C)C [Example 288, 1-(((5R,8S)-3-(2,6-difluorophenyl)-9,9-dimethyl-5,6,7,8-tetrahydro-5,8-methanocinnolin-8-yl)methyl)-1,3-diethylurea]",21
12,"CCOC(=O)N(CCC#N)C[C@@]12CC[C@@H](c3cc(-c4c(F)cccc4F)nnc31)C2(C)C [Example 312, ethyl (2-cyanoethyl)(((5R,8S)-3-(2,6-difluorophenyl)-9,9-dimethyl-5,6,7,8-tetrahydro-5,8-methanocinnolin-8-yl)methyl)carbamate]",45

# Results, then the molecule that gave them:
row,IC50 [nM],Compound
1,89,"Cc1noc(C[C@@]23CC[C@@H](c4cc(-c5c(F)cccc5F)nnc42)C3(C)C)n1 [Example 75, (5R,8R)-3-(2,6-difluorophenyl)-9,9-dimethyl-8-[(3-methyl-1,2,4-oxadiazol-5-yl)methyl]-5,6,7,8-tetrahydro-5,8-methanocinnoline]"
2,222,"CC1(C)[C@H]2CC[C@]1(c1cnco1)c1nnc(-c3c(F)cccc3F)cc12 [Example 104, (5R,8R)-3-(2,6-difluorophenyl)-9,9-dimethyl-8-(1,3-oxazol-5-yl)-5,6,7,8-tetrahydro-5,8-methanocinnoline]"
3,819,"CC1(C)[C@@H]2CC[C@@]1(C(=O)N1CC(CO)C1)c1nnc(-c3c(F)cccc3F)cc12 [Example 233, ((5S,8S)-3-(2,6-difluorophenyl)-9,9-dimethyl-5,6,7,8-tetrahydro-5,8-methanocinnolin-8-yl)(3-(hydroxymethyl)azetidin-1-yl)methanone]"
4,2200,"CC1(C)[C@H]2CC[C@]1(c1ncn[nH]1)c1nnc(-c3c(F)cccc3F)cc12 [Example 185, (5R,8R)-3-(2,6-difluorophenyl)-9,9-dimethyl-8-(1H-1,2,4-triazol-5-yl)-5,6,7,8-tetrahydro-5,8-methanocinnoline]"
5,1130,"CN(CCC#N)C(=O)[C@]12CC[C@H](c3cc(-c4c(F)cccc4F)nnc31)C2(C)C [Example 258, (5S,8S)-N-(2-cyanoethyl)-3-(2,6-difluorophenyl)-N,9,9-trimethyl-5,6,7,8-tetrahydro-5,8-methanocinnoline-8-carboxamide]"
6,44,"CC1(C)[C@H]2CC[C@]1(c1ccon1)c1nnc(-c3c(F)cccc3F)cc12 [Example 197, 3-((5R,8R)-3-(2,6-difluorophenyl)-9,9-dimethyl-5,6,7,8-tetrahydro-5,8-methanocinnolin-8-yl)isoxazole]"
7,856,"CN(C)C(=O)[C@@]12CC[C@@H](c3cc(-c4c(F)cccc4F)nnc31)C2(C)C [Example 82, (5R,8R)-3-(2,6-difluorophenyl)-N,N,9,9-tetramethyl-6,7-dihydro-5,8-methanocinnoline-8(5H)-carboxamide]"
8,106,"Cc1nc(C[C@@]23CC[C@@H](c4cc(-c5c(F)cccc5F)nnc42)C3(C)C)no1 [Example 59, (5R,8R)-3-(2,6-difluorophenyl)-9,9-dimethyl-8-[(5-methyl-1,2,4-oxadiazol-3-yl)methyl]-5,6,7,8-tetrahydro-5,8-methanocinnoline]"
9,321,"CC1(C)[C@H]2CC[C@]1(CN1CCNC1=O)c1nnc(-c3c(F)cccc3F)cc12 [Example 268, 1-(((5R,8S)-3-(2,6-difluorophenyl)-9,9-dimethyl-5,6,7,8-tetrahydro-5,8-methanocinnolin-8-yl)methyl)imidazolidin-2-one]"
10,8,"Cn1c([C@@]23CC[C@@H](c4cc(-c5c(F)cccc5F)nnc42)C3(C)C)cccc1=O [Example 165, 6-((5R,8S)-3-(2,6-difluorophenyl)-9,9-dimethyl-5,6,7,8-tetrahydro-5,8-methanocinnolin-8-yl)-1-methylpyridin-2(1H)-one]"
11,186,"CC1(C)[C@@H]2CC[C@@]1(c1nnco1)c1nnc(-c3c(F)cccc3F)cc12 [Example 110, (5S,8S)-3-(2,6-difluorophenyl)-9,9-dimethyl-8-(1,3,4-oxadiazol-2-yl)-5,6,7,8-tetrahydro-5,8-methanocinnoline]"
12,301,"COC(=O)N(C)[C@@]12CC[C@@H](c3cc(-c4c(F)cccc4F)nnc31)C2(C)C [Example 274, methyl ((5R,8R)-3-(2,6-difluorophenyl)-9,9-dimethyl-5,6,7,8-tetrahydro-5,8-methanocinnolin-8-yl)(methyl)carbamate]"
